Tests used:
[1] = Hygroscopicity of solid forms of compound (V), qualitative comparison; format: physicochemical; conditions: solid form; amorphous solid made according to US 20090274713 as comparator
Text: In one embodiment, the invention is directed to new crystalline forms of the compound of formula (V), e.g., Crystalline Forms 1, 2a, 2b and 3 as described below.

[2] = Gravimetric vapour sorption (GVS) moisture sorption isotherm; format: physicochemical; conditions: 25° C.; for weight gain, adsorption profile (GVS): between 40% RH and 90% RH; for weight loss, desorption profile (GVS): between 90% RH and 0% RH
Experimental: Sorption isotherms were obtained using a SMS DVS Intrinsic moisture sorption analyser, controlled by DVS Intrinsic Control software v1.0.0.30. The sample temperature was maintained at 25° C. by the instrument controls. The humidity was controlled by mixing streams of dry and wet nitrogen, with a total flow rate of 200 ml/min. The relative humidity was measured by a calibrated Rotronic probe (dynamic range of 1.0-100% RH), located near the sample. The weight change, (mass relaxation) of the sample as a function of % RH was constantly monitored by the microbalance (accuracy ±0.005 mg).
Typically 10 mg of sample was placed in a tared mesh stainless steel basket under ambient conditions. The sample was loaded and unloaded at 40% RH and 25° C. (typical room conditions). A moisture sorption isotherm was performed as outlined below (2 scans giving 1 complete cycle). The standard isotherm was performed at 25° C. at 10% RH intervals over a 0-90% RH range. Data analysis was undertaken in Microsoft Excel using DVS Analysis Suite v6.0.0.7.

| Structure (SMILES) | weight gain, adsorption profile (GVS) [2] [%] | weight loss, desorption profile (GVS) [2] [%] | weight gain, second adsorption profile (GVS) ([2]; between 0% RH and 40% RH) [%] | hygroscopicity [1] |
| --- | --- | --- | --- | --- |
| O=C(ON1C(=O)CCC1=O)C(CCSSc1ccccn1)S(=O)(=O)O (stereo not drawn) [Compound of formula (V), N-succinimidyl 4-(2′-pyridyldithio)-2-sulfobutanoate] | – | – | – | highly hygroscopic |
| O=C(ON1C(=O)CCC1=O)C(CCSSc1ccccn1)S(=O)(=O)O (stereo not drawn) [Crystalline Form 1, N-succinimidyl 4-(2′-pyridyldithio)-2-sulfobutanoate] | 1.6 | 1.9 | – | significantly less hygroscopic than the amorphous solid |
| O=C(ON1C(=O)CCC1=O)C(CCSSc1ccccn1)S(=O)(=O)O (stereo not drawn) [Crystalline Form 2b, N-succinimidyl 4-(2′-pyridyldithio)-2-sulfobutanoate] | – | – | – | significantly less hygroscopic than the amorphous solid |

Further lines, with some results ahead:

| weight gain, adsorption profile (GVS) [2] [%] | weight loss, desorption profile (GVS) [2] [%] | weight gain, second adsorption profile (GVS) ([2]; between 0% RH and 40% RH) [%] | Structure (SMILES) | hygroscopicity [1] |
| --- | --- | --- | --- | --- |
| 1.8 | 2.4 | – | O=C(ON1C(=O)CCC1=O)C(CCSSc1ccccn1)S(=O)(=O)O (stereo not drawn) [Crystalline Form 2a, N-succinimidyl 4-(2′-pyridyldithio)-2-sulfobutanoate] | significantly less hygroscopic than the amorphous solid |
| 25 | 29.4 | 0.4 | O=C(ON1C(=O)CCC1=O)C(CCSSc1ccccn1)S(=O)(=O)O (stereo not drawn) [Crystalline Form 3, N-succinimidyl 4-(2′-pyridyldithio)-2-sulfobutanoate] | significantly less hygroscopic than the amorphous solid |

Source: patent US10112925B2, “Methods for the preparation of charged crosslinkers” (IMMUNOGEN, INC., priority 2010, dated 2018)
